For 5 compounds, IC50 results are on record in ChEMBL document CHEMBL1127505, “Structure-activity relationships of new taxoids derived from 14 beta-hydroxy-10-deacetylbaccatin III” (J Med Chem, 1994).

Common to all, as to type: functional, cell-based
For one experiment, the system named is HT-29. Briefly: In vitro cytotoxicity against human colon carcinoma HT-29.
For a further experiment, the system named is A121. Briefly: In vitro cytotoxicity against human ovarian carcinoma […].
Experiment [1] relates to MCF7. Briefly: In vitro cytotoxicity against human mammary carcinoma MCF-7.
The test system of experiment [2] is MCF7. Briefly: In vitro cytotoxicity against human mammary carcinoma cells 180 fold resistant to adriamycin MCF7-R.
The test system of another experiment is A549. Briefly: In vitro cytotoxicity against human non-small cell lung carcinoma A549.

The term IC50 denotes the point on the concentration scale where inhibition reaches its midpoint. Regarding `CC(=O)O[C@@]12CO[C@@H]1C[C@H](O)[C@@]1(C)C(=O)[C@H](O)C3=C(C)[C@@H](OC(=O)[C@H](O)[C@@H](NC(=O)c4ccccc4)c4ccccc4)[C@@H]4OC(=O)O[C@]4([C@@H](OC(=O)c4ccccc4)C12)C3(C)C` (some centres not stated), the 50% inhibitory concentration (IC50) in the experiment with HT-29 was 24 nM; in the experiment on A121, 105 nM; in the experiment with MCF7 [1], 11 nM; in the experiment with MCF7 [2], above 1000 nM; with A549, 33 nM.
As for `CC(=O)O[C@H]1C(=O)[C@@]2(C)[C@H]([C@H](OC(=O)c3ccccc3)[C@]3(O)C[C@H](OC(=O)[C@H](O)[C@@H](NC(=O)c4ccccc4)c4ccccc4)C(C)=C1C3(C)C)[C@]1(OC(C)=O)CO[C@@H]1C[C@@H]2O` [PACLITAXEL], the half-inhibitory concentration (IC50) with HT-29 amounted to 3.2 nM; with A121, 6.1 nM.
Consider `CC(=O)O[C@@]12CO[C@@H]1C[C@H](O)[C@@]1(C)C(=O)[C@H](O)C3=C(C)[C@@H](O)[C@H](OC(=O)[C@@H](O)C(NC(=O)c4ccccc4)c4ccccc4)[C@@](O)([C@@H](OC(=O)c4ccccc4)C12)C3(C)C` (some centres not stated), for which the IC50 was 248 nM in the experiment on HT-29; 1040 nM with A121; 269 nM with MCF7 [1]; above 1000 nM in the experiment on MCF7 [2]; 512 nM in the experiment with A549.
On the same counts, the results for `CC(=O)O[C@@]12CO[C@@H]1C[C@H](O)[C@@]1(C)C(=O)[C@H](O)C3=C(C)[C@@H](OC(=O)[C@H](O)[C@@H](NC(=O)OC(C)(C)C)c4ccccc4)[C@@H]4OC(=O)O[C@]4([C@@H](OC(=O)c4ccccc4)C12)C3(C)C` (some centres not stated) are 1.8 nM, 6.2 nM, 1.8 nM, 543 nM and 2.1 nM.
In the case of `CC(=O)O[C@@]12CO[C@@H]1C[C@H](O)[C@@]1(C)C(=O)[C@H](O)C3=C(C)[C@@H](O)[C@H](OC(=O)[C@@H](O)C(NC(=O)OC(C)(C)C)c4ccccc4)[C@@](O)([C@@H](OC(=O)c4ccccc4)C12)C3(C)C` (some centres not stated), the IC50 in the experiment with HT-29 was 50 nM; in the experiment with A121 it was 80 nM; in the experiment with MCF7 [1] it was 26 nM; in the experiment on MCF7 [2], above 1000 nM; in the experiment with A549, 31 nM.
